Non-standard residues stand in square brackets, D forms with d. Residues, ends and D or L forms follow the SMILES beside them. *: point of attachment. Propanoyl(3-(3-pyridyl)) = O=C(CCc1cccnc1)*; Arg(Me) = CNC(=N)NCCC[C@H](N)C(=O)O; d4Pal = N[C@H](Cc1ccncc1)C(=O)O; azaGly = NNC(=O)O
Columns and labels:
hOT7T175 [1] = molecular target: T1, hOT7T175 (Homo sapiens, UniProt Q969F8); assay: Intracellular Ca ion level-increasing activity using FLIPR (180 seconds; specific activity to Metastin (1-54)); type: cell-based; settings: hOT7T175/CHO, change in intracellular calcium ion level for 180 seconds, Tables 21-23
T1 construct: expressed in transfected cells
T1 sequence (Q969F8 whole entry L364H): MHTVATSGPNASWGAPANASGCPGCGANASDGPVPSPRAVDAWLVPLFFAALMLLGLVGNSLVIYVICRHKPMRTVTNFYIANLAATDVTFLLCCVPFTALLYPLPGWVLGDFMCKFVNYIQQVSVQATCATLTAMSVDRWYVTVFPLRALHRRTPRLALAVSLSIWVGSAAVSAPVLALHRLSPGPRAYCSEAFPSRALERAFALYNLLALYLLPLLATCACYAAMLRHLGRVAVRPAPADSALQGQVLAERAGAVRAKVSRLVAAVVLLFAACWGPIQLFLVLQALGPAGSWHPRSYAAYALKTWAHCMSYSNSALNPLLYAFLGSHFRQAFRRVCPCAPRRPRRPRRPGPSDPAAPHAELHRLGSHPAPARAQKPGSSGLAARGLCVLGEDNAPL

hOT7T175 [2] = molecular target: T2, hOT7T175 (Homo sapiens, UniProt Q969F8, L364H); type: cell-based; settings: hOT7T175/CHO, FLIPR, evaluation for 40 seconds after initiation of the reaction
T2 construct: expressed in transfected cells
T2 sequence (Q969F8 whole entry L364H): as above
Experimental: The intracellular Ca ion level-increasing activity was measured using FLIPR as in TEST EXAMPLE 2.

[3] = test system: human colonic carcinoma-derived cell line SW620; assay: Tumor growth inhibition activity in tumor-bearing mice; type: in vivo, mouse; settings: for tumor growth inhibition (tumor size) compared to the vehicle group: s.c. osmotic pump; for effect of tumor growth inhibition relative to Metastin: in vivo
Experimental: The abscissa denotes the number of days after injection. The bar on the abscissa designates a dosing period. The ordinate denotes a tumor size (mm^3).
On the following day, human colonic carcinoma-derived cell line SW620 (ATCC) was dissolved in 20 mM phosphate buffered saline (pH 7.2)(PBS) containing 200 μL of 0.15M NaCl at a density of 2×10^6 cells. The resulting solution was subcutaneously injected into the left flank of the mice above. The day when the cells were injected was made Day 0. Tumor was measured with an electronic caliper every other or 2 other days during Days 4 to 13 from the cell administration, and tumor size was calculated by the equation: (shorter diameter)^2×longer diameter/2.

[4] = Induction of ovulation in immature rat using metastin derivatives; type: in vivo; settings: for progesterone level compared with hCG administration / dose to be administered for induction of ovulation equivalent to hCG / number of oocytes in average per rat: eCG-primed immature female Wistar rats; for dose to be administered for induction of ovulation equivalent to hCG: s.c.; for blood progesterone level: relative to Group A (hCG)
Experimental: Equine chorionic gonadotropin (eCG, serotropin, Dainippon Pharmaceutical Co., Ltd.) was dissolved in saline (Otsuka Pharmaceutical Co., Ltd.) in a concentration of 100 IU/mL. Using a 1 ml tuberculin syringe and a 26-gauge needle (both by Terumo Co., Ltd.), eCG was subcutaneously injected into the dorsal area of female Wistar rats of 23 days old after birth (Charles River Japan, Inc.) in a dose of 10 IU/animal, during 9:00 to 10:00 AM. Following the eCG injection, the animal was grouped after 47 to 48 hours as shown below, to which groups, each drug was injected.
Group B (5 rats): Compound No. 305 was dissolved in saline at 33.3 nmol/mL and the solution was subcutaneously injected into the back in a dose of 6.7 nmol/animal.
Group C (5 rats): Compound No. 305 was dissolved in saline at […] and the solution was subcutaneously injected into the back in a dose of 2.0 nmol/animal.
Group D (5 rats): Compound No. 322 was dissolved in saline at 33.3 nmol/mL and the solution was subcutaneously injected into the back in a dose of 6.7 nmol/animal.
Group E (5 rats): Compound No. 322 was dissolved in saline at 10.0 nmol/mL and the solution was subcutaneously injected into the back in a dose of 2.0 nmol/animal.
Group F (6 rats): Saline was subcutaneously injected into the back in a dose of 200 μL/animal.
After administration of these drugs, the animal was sacrificed by decapitation after 24 to 25 hours to recover blood, bilateral oviducts and uterus. In collecting blood, 90 μl of 10 KIU/mL aprotinin solution (Trasylol, Bayer) containing 3 mg/ml EDTA had been previously filled in a tube for recovery to prevent blood clotting. After blood recovery, the blood was thoroughly blended and the mixture was centrifuged at 2,000 G for 25 minutes. After the supernatant was recovered, the product was used as a plasma sample.
The number of oocytes was counted by referring to the method described in Eur. J. Endocrinol., 138, 594-600 (1998).
Where retention of oocytes in the oviducal ampulla was confirmed by stereomicroscopic observation of the oviduct, the ampulla was punctured with a 27-gauge needle for syringe (Terumo) to retrieve the oocytes. After granulosa cells surrounding the oocytes were removed by trypsin treatment, the number of oocytes was counted. Where retention of oocytes in the oviducal ampulla was not confirmed by stereomicroscopic observation of the oviduct, a with 27-gauge needle with the polished tip for syringe was inserted into the tubal ostium and more than 400 μL of saline was flushed into the oviduct and uterine for rinsing. Then, the presence or absence of oocytes in the effluent was observed.
The blood estradiol level was measured by radioimmunoassay (DPC.Estradiol Kit, Iatron, Inc.).
The blood progesterone level was measured by radioimmunoassay (DPC.Progesterone, Iatron, Inc.).

[5] = SW620 tumor-bearing BALB/cAnN-nu mice, 1 mM, 24 mol/day/mouse×14 days (24 nmol for Compound No. 305)
[6] = SW620 tumor-bearing mice, 0.1 mM, 1/10 dose of Metastin, 2.4 mol (nmol)/day/mouse×14 days
[7] = s.c. 2.0 nmol/animal (Groups C, E)
[8] = s.c. 6.7 nmol/animal (Groups B, D)

Compound	intracellular Ca ion level-increasing activity [specific activity to Metastin (1-54)] (hOT7T175 [1])	Specific Act. (EC50/MS10 EC50) (hOT7T175 [2])	tumor growth inhibition (tumor size) compared to the vehicle group [3, 5]	effect of tumor growth inhibition relative to Metastin ([3]; SW620 tumor-bearing mice) [times]	tumor growth inhibition (tumor size) compared to the vehicle group [3, 6]	tumor growth inhibition (tumor size) compared with the Metastin group ([3]; SW620 tumor-bearing mice, same dose as Metastin, 24 mol/day/mouse×14 days)	rats ovulated ([4]; Group E, s.c. 2.0 mmol (so in the source) per animal)	progesterone level compared with hCG administration [4]	dose to be administered for induction of ovulation equivalent to hCG [4]	number of oocytes in average per rat [4, 7] [oocytes]	number of oocytes in average per rat [4, 8] [oocytes]	blood estradiol level [4, 7]	blood progesterone level [4, 7]	blood estradiol level [4, 8]	blood progesterone level [4, 8]
CNC(=N)NCCC[C@H](NC(=O)[C@H](CC(C)C)NC(=O)NNC(=O)[C@H](Cc1ccccc1)NC(=O)[C@H](CO)NC(=O)[C@H](CC(N)=O)NC(=O)CCc1cccnc1)C(=O)N[C@@H](Cc1ccccc1)C(N)=O [Compound No. 322, 3-(3-Pyridyl)propionyl-Asn-Ser-Phe-AzaGly-Leu-Arg(Me)-Phe-NH2] ({Propanoyl(3-(3-pyridyl))}-NSF[azaGly]L[Arg(Me)]F-NH2)	1	5.4	significant tumor growth inhibition activity from Days 6 to 11	10	significant tumor growth inhibition activity in a 1/10 dose (2.4 mol/day/mouse×14 days) of Metastin from Days 6 to 8	on Day 11, showed a significant tumor growth inhibition activity even when compared with the Metastin group	3 out of 5	lower than in the hCG administration	at least 6.7 mmol/animal	11.6	29.6	tendency to show a higher level in rats with no ovulation induction	very low level	no difference was found among Groups A, B, C and D	less than a half of the level in Group A
CNC(=N)NCCC[C@H](NC(=O)[C@H](CC(C)C)NC(=O)NNC(=O)[C@H](Cc1ccccc1)NC(=O)[C@H](CO)NC(=O)[C@H](CC(N)=O)NC(=O)[C@@H](Cc1ccncc1)NC(=O)[C@H](N)Cc1ccc(O)cc1)C(=O)N[C@@H](Cc1ccccc1)C(N)=O [Compound No. 305, D-Tyr-D-Pya(4)-Asn-Ser-Phe-AzaGly-Leu-Arg(Me)-Phe-NH2] (H-[dY][d4Pal]NSF[azaGly]L[Arg(Me)]F-NH2)	5	2.0	significant effect of tumor growth inhibition from Days 5 to 9 and on Day 11	10	significant tumor growth inhibition activity from Days 5 to 11			lower than in the hCG administration	at least 2.0 mmol/animal	29.4	32.6	no difference was found among Groups A, B, C and D	less than a half of the level in Group A	no difference was found among Groups A, B, C and D	less than a half of the level in Group A

— patent US8778871B2 (Takeda Pharmaceutical Company Limited, priority 2004, dated 2014)
